# Laboratory results: patent US20070219245A1, “METHOD OF USE FOR SUBSTITUTED DIPIPERIDINE CCR2 ANTAGONISTS” (priority 2006, published 2007)
# Key:
# Assay type in all cases: in vivo
# DIO mice = test: Diet induced obesity (DIO) model, treatment arm TA1 (high fat diet); conditions: for Body Weight Gain / Change in Fat Mass / Change in Lean Mass / Change in Water / Food Intake / Plasma MCP-1: TA1 DIO mice, high fat diet, mean ± SEM
# Description: (§1) In a diet induced obesity (DIO) model in mice, two treatment arms of mice were tested. In the first treatment arm (TA1), DIO mice in four treatment groups (treated: 25 mg/kg, 50 mg/kg and 100 mg/kg and non-treated vehicle control) were fed a high fat diet. In the second treatment arm (TA2), lean mice in two treatment groups (treated: 100 mg/kg and non-treated vehicle control) were fed a regular chow diet. After 7 days acclimation to the diet, the treated groups in each arm were dosed (0.1 mL, ip, bid) with a test compound from Day 1 to Day 28 of the study. After 7 days acclimation to the diet, the non-treated groups in each arm were dosed (0.1 mL, ip, bid) with vehicle from Day 1 to Day 28 of the study. Body weight was monitored twice per week and on Day 28. After sacrifice, blood glucose, body weight, body mass, serum MCP-1 and insulin levels were also recorded. MCP-1 was measured by ELISA. The statistical analysis for p value was performed using the program Prism (Graphpad, Monrovia, Calif.) with the Student t-test (unpaired). All data are presented as the mean ± standard error of the mean (SEM).
# NON (NONcNZO10/LtJ) mice = test: Insulin sensitivity model: Day 28 blood samples and body weight; conditions: for Blood HbA1c / Body Weight / Plasma FFA / Plasma Glucose / Plasma Insulin / Plasma MCP-1: mean ± SEM
# Description: In an insulin sensitivity model in mice, four month old male NON (NONcNZO10/LtJ) mice in four treatment groups (treated: 25 mg/kg, 50 mg/kg and 100 mg/kg and non-treated vehicle control) were fed LabDiet® 5K20 for 28 days. The treated groups were dosed (0.1 mL, ip, bid) with a test compound from Day 1 to Day 28. The non-treated group was dosed (0.1 mL, ip, q.d.) with vehicle from Day 1 to Day 28. Body weight and blood glucose were monitored once per week and an insulin tolerance test was performed by i.p. injection of […] insulin, then fed blood glucose levels were measured at 0, 15, 30, 60, 90, and 120 min after insulin administration. The insulin tolerance test blood glucose levels at the time points the sample were taken after insulin administration are shown in Table 5. After sacrifice on Day 28, blood samples were collected to measure HbA1c, plasma levels of glucose, plasma insulin, FFA (free fatty acids) and MCP-1. Blood glucose levels were measured using a Glucometer. MCP-1 and insulin were measured by ELISA. Plasma glucose and FFA were measured using Weko kits. The statistical analysis for p value was performed using the program Prism (Graphpad, Monrovia, Calif.) with the Student t-test (unpaired). All data are presented as the mean ± standard error of the mean (SEM).
# lean mice = test: Diet induced obesity model, treatment arm TA2 (lean mice, regular chow diet); conditions: 100 mg/kg ip bid Day 1-28, mean ± SEM
# Description: as §1
smiles,measurement,setting,value
"O=C(O)[C@H](C1CCN(C(=O)/C=C/c2cc(F)c(F)c(F)c2)CC1)N1CCC(c2c[nH]c3ccccc23)CC1 [(S)-{[4-(1H-indol-3-yl)-piperidin-1-yl]}-{1-[(2E)-3-(3,4,5-trifluoro-phenyl)-acryloyl]-piperidin-4-yl}-acetic acid]",body fat mass gain,DIO mice; DIO model in mice,significantly reduced
same,lean mass,DIO mice; DIO model in mice,no change
same,weight gain,DIO mice; DIO model in mice,significantly reduced
same,Body Weight Gain,DIO mice; 25 mg/kg ip bid Day 1-28,3.8 ± 1.2 g
same,Change in Fat Mass,DIO mice; 25 mg/kg ip bid Day 1-28,0.9 ± 0.7 g
same,Change in Lean Mass,DIO mice; 25 mg/kg ip bid Day 1-28,3.1 ± 0.9 g
same,Change in Water,DIO mice; 25 mg/kg ip bid Day 1-28,2.8 ± 0.8 g
same,Food Intake,DIO mice; 25 mg/kg ip bid Day 1-28,14.0 ± 1.6 g/7 days
same,Plasma MCP-1,DIO mice; 25 mg/kg ip bid Day 1-28,69.2 ± 5.6 pg/mL
same,Body Weight Gain,DIO mice; 50 mg/kg ip bid Day 1-28,3.4 ± 1.1 g
same,Change in Fat Mass,DIO mice; 50 mg/kg ip bid Day 1-28,0.4 ± 0.6 g
same,Change in Lean Mass,DIO mice; 50 mg/kg ip bid Day 1-28,4.9 ± 0.9 g
same,Change in Water,DIO mice; 50 mg/kg ip bid Day 1-28,4.5 ± 0.8 g
same,Food Intake,DIO mice; 50 mg/kg ip bid Day 1-28,13.5 ± 1.8 g/7 days
same,Plasma MCP-1,DIO mice; 50 mg/kg ip bid Day 1-28,98.3 ± 7.6 pg/mL
same,Body Weight Gain,DIO mice; 100 mg/kg ip bid Day 1-28,2.3 ± 1.8 g
same,Change in Fat Mass,DIO mice; 100 mg/kg ip bid Day 1-28,0.2 ± 0.3 g
same,Change in Lean Mass,DIO mice; 100 mg/kg ip bid Day 1-28,3.4 ± 0.3 g
same,Change in Water,DIO mice; 100 mg/kg ip bid Day 1-28,2.9 ± 0.3 g
same,Food Intake,DIO mice; 100 mg/kg ip bid Day 1-28,14.5 ± 3.6 g/7 days
same,Plasma MCP-1,DIO mice; 100 mg/kg ip bid Day 1-28,503.5 ± 69.7 pg/mL
same,Blood HbA1c,"NON (NONcNZO10/LtJ) mice; Day 28, 25 mg/kg ip bid",6.6 ± 0.5%
same,Body Weight,"NON (NONcNZO10/LtJ) mice; Day 28, 25 mg/kg ip bid",45.2 ± 1.4 g
same,Plasma FFA,"NON (NONcNZO10/LtJ) mice; Day 28, 25 mg/kg ip bid",1.2 ± 0.4 mM
same,Plasma Glucose,"NON (NONcNZO10/LtJ) mice; Day 28, 25 mg/kg ip bid",413 ± 52 mg/dL
same,Plasma Insulin,"NON (NONcNZO10/LtJ) mice; Day 28, 25 mg/kg ip bid",5.8 ± 0.7 ng/mL
same,Plasma MCP-1,"NON (NONcNZO10/LtJ) mice; Day 28, 25 mg/kg ip bid",56.6 ± 3.0 pg/mL
same,Blood HbA1c,"NON (NONcNZO10/LtJ) mice; Day 28, 50 mg/kg ip bid",6.7 ± 0.7%
same,Body Weight,"NON (NONcNZO10/LtJ) mice; Day 28, 50 mg/kg ip bid",42.6 ± 0.8 g
same,Plasma FFA,"NON (NONcNZO10/LtJ) mice; Day 28, 50 mg/kg ip bid",1.0 ± 0.2 mM
same,Plasma Glucose,"NON (NONcNZO10/LtJ) mice; Day 28, 50 mg/kg ip bid",358 ± 58 mg/dL
same,Plasma Insulin,"NON (NONcNZO10/LtJ) mice; Day 28, 50 mg/kg ip bid",5.4 ± 0.9 ng/mL
same,Plasma MCP-1,"NON (NONcNZO10/LtJ) mice; Day 28, 50 mg/kg ip bid",177.4 ± 63.4 pg/mL
same,Blood HbA1c,"NON (NONcNZO10/LtJ) mice; Day 28, 100 mg/kg ip bid",5.0 ± 0.2 %
same,Body Weight,"NON (NONcNZO10/LtJ) mice; Day 28, 100 mg/kg ip bid",43.6 ± 0.9 g
same,Plasma FFA,"NON (NONcNZO10/LtJ) mice; Day 28, 100 mg/kg ip bid",0.6 ± 0.1 mM
same,Plasma Glucose,"NON (NONcNZO10/LtJ) mice; Day 28, 100 mg/kg ip bid",190 ± 15 mg/dL
same,Plasma Insulin,"NON (NONcNZO10/LtJ) mice; Day 28, 100 mg/kg ip bid",7.9 ± 1.1 ng/mL
same,Plasma MCP-1,"NON (NONcNZO10/LtJ) mice; Day 28, 100 mg/kg ip bid",555.6 ± 104.5 pg/mL
same,HbA1c levels,NON (NONcNZO10/LtJ) mice; NON mice,significantly reduced
same,body weight between treated and non-treated groups,NON (NONcNZO10/LtJ) mice; NON mice,without a significant difference
same,Body Weight Gain,lean mice,2.3 ± 1.5 g
